Data: ChEMBL document CHEMBL5465560, “Selectivity Literature for EUbOPEN Chemogenomic Library” (2024)

How the values were obtained:
[1] = target: T1, MAP kinase-activated protein kinase 5 (Homo sapiens) (UniProt Q8IW41); test: Selectivity interaction (KinomeScan (DiscoverX)) EUB0000607a MAPKAPK5; conditions: at 10 µM
T1 sequence (whole entry): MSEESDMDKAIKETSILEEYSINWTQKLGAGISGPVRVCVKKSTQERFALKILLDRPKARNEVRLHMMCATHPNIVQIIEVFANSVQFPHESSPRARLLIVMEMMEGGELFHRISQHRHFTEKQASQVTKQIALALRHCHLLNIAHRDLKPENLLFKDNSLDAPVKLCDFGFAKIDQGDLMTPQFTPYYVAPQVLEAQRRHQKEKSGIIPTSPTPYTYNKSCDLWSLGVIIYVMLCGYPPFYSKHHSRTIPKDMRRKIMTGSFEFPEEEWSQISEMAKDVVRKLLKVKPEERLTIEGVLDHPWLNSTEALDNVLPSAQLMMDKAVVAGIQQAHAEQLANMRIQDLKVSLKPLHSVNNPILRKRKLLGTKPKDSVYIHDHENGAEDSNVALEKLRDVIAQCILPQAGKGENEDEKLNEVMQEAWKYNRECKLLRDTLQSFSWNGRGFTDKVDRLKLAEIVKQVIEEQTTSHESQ

[2] = target: Serine/threonine-protein kinase 32B (Homo sapiens) (UniProt Q9NY57); test: Selectivity interaction (KinomeScan (DiscoverX)) EUB0000695a STK32B; conditions: at 100 nM
[3] = target: Insulin-like growth factor 1 receptor (Homo sapiens, UniProt P08069); test: Selectivity interaction (KinomeScan (DiscoverX)) EUB0000595a IGF1R; conditions: at 10 µM
[4] = target: cAMP-dependent protein kinase catalytic subunit alpha (Homo sapiens, UniProt P17612); test: Selectivity interaction (KinomeScan (DiscoverX)) EUB0001049a PRKACA; conditions: at 1 µM
[5] = target: T2, Inhibitor of nuclear factor kappa-B kinase subunit beta (Homo sapiens) (UniProt O14920)
T2 sequence (whole entry): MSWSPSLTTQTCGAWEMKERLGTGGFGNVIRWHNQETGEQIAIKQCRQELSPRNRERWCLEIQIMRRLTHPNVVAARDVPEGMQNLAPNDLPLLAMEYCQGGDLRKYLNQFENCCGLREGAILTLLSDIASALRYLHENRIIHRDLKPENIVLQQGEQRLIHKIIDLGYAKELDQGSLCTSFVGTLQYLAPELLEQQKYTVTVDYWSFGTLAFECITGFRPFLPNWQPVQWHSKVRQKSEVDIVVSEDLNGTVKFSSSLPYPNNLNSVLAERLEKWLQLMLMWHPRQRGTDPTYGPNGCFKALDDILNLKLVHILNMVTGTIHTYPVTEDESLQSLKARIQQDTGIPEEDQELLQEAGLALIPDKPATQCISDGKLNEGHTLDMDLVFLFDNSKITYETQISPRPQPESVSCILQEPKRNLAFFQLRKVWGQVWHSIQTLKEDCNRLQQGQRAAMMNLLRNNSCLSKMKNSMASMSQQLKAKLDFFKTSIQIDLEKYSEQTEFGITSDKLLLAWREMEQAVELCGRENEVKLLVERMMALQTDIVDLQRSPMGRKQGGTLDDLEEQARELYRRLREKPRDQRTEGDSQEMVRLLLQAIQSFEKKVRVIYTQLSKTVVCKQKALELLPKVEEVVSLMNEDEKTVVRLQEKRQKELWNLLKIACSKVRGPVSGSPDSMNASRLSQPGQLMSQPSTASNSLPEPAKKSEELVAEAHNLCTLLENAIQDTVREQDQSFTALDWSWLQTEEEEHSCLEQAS

[6] = target: Proto-oncogene tyrosine-protein kinase ROS (Homo sapiens) (UniProt P08922); test: Selectivity interaction (KinomeScan (DiscoverX)) EUB0001079a ROS1; conditions: at 1 µM
[7] = target: N6-adenosine-methyltransferase catalytic subunit (Homo sapiens) (UniProt Q86U44); test: Selectivity interaction (Transferase panel (protein, RNA, and DNA methyltransferases. and EP300 (acetyltransferase))) EUB0000270b METTL3
[8] = target: T3, Myosin-IIIb (Homo sapiens) (UniProt Q8WXR4); conditions: at 10 µM
T3 sequence (whole entry): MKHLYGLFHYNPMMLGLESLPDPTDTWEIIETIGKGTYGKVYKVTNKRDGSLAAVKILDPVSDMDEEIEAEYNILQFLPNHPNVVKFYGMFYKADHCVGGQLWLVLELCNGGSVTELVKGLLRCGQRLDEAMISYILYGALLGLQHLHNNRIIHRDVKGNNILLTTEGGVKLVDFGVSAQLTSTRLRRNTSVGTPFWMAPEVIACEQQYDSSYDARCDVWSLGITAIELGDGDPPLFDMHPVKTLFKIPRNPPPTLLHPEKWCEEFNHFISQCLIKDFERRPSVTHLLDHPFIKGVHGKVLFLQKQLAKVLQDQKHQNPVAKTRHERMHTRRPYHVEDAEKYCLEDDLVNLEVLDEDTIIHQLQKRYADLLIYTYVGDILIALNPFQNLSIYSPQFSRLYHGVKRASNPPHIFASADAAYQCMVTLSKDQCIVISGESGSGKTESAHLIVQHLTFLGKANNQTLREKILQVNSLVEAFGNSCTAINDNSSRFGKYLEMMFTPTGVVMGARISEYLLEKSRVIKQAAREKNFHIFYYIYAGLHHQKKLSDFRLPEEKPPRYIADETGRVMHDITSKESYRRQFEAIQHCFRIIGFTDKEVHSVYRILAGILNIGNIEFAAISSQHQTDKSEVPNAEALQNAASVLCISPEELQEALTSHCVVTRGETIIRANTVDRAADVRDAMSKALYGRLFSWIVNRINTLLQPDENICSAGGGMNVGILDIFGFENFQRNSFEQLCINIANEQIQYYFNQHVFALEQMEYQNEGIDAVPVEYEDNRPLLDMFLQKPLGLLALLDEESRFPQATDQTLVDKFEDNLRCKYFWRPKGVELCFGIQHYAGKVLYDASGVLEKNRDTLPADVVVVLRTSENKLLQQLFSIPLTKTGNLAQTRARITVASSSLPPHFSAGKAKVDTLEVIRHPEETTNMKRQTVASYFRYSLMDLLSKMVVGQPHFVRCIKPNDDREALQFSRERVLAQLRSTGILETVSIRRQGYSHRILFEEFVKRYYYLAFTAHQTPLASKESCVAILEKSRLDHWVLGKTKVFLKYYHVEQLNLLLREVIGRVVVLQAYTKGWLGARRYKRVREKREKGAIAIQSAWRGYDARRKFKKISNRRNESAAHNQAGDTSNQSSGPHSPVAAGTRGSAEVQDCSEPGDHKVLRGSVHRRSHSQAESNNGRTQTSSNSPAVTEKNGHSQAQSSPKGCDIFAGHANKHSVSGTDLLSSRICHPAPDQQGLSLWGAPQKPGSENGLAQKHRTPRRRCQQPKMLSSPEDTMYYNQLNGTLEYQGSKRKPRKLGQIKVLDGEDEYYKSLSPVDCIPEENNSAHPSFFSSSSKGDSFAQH

Chain of N6-adenosine-methyltransferase catalytic subunit (Homo sapiens) (Q86U44 whole entry): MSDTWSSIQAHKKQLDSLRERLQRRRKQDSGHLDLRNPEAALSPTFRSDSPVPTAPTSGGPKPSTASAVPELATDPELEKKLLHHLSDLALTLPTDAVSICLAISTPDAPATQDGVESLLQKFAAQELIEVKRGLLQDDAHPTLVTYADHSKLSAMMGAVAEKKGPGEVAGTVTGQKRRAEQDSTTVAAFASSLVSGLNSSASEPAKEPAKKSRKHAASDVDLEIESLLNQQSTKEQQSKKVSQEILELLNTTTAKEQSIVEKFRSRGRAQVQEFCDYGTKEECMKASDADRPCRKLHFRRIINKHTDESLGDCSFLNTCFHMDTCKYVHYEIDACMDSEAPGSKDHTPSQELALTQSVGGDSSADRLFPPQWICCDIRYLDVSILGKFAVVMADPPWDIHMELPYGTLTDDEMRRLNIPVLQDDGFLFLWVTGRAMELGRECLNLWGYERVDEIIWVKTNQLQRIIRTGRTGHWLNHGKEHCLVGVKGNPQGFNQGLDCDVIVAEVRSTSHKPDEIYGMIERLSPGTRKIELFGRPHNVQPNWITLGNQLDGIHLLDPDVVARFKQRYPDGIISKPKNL
Chain of Serine/threonine-protein kinase 32B (Homo sapiens) (Q9NY57 whole entry): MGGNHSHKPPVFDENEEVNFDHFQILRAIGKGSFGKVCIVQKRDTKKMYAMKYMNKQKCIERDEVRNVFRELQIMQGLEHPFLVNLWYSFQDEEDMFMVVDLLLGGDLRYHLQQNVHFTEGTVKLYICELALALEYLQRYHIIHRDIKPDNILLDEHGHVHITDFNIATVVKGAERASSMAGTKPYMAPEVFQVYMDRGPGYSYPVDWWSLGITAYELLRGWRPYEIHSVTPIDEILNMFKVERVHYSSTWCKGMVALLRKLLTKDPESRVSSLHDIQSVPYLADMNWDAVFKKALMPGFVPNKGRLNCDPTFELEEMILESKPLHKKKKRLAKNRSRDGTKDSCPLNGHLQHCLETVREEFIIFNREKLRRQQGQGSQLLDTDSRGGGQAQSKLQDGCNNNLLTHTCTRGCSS
Chain of Proto-oncogene tyrosine-protein kinase ROS (Homo sapiens) (P08922 whole entry): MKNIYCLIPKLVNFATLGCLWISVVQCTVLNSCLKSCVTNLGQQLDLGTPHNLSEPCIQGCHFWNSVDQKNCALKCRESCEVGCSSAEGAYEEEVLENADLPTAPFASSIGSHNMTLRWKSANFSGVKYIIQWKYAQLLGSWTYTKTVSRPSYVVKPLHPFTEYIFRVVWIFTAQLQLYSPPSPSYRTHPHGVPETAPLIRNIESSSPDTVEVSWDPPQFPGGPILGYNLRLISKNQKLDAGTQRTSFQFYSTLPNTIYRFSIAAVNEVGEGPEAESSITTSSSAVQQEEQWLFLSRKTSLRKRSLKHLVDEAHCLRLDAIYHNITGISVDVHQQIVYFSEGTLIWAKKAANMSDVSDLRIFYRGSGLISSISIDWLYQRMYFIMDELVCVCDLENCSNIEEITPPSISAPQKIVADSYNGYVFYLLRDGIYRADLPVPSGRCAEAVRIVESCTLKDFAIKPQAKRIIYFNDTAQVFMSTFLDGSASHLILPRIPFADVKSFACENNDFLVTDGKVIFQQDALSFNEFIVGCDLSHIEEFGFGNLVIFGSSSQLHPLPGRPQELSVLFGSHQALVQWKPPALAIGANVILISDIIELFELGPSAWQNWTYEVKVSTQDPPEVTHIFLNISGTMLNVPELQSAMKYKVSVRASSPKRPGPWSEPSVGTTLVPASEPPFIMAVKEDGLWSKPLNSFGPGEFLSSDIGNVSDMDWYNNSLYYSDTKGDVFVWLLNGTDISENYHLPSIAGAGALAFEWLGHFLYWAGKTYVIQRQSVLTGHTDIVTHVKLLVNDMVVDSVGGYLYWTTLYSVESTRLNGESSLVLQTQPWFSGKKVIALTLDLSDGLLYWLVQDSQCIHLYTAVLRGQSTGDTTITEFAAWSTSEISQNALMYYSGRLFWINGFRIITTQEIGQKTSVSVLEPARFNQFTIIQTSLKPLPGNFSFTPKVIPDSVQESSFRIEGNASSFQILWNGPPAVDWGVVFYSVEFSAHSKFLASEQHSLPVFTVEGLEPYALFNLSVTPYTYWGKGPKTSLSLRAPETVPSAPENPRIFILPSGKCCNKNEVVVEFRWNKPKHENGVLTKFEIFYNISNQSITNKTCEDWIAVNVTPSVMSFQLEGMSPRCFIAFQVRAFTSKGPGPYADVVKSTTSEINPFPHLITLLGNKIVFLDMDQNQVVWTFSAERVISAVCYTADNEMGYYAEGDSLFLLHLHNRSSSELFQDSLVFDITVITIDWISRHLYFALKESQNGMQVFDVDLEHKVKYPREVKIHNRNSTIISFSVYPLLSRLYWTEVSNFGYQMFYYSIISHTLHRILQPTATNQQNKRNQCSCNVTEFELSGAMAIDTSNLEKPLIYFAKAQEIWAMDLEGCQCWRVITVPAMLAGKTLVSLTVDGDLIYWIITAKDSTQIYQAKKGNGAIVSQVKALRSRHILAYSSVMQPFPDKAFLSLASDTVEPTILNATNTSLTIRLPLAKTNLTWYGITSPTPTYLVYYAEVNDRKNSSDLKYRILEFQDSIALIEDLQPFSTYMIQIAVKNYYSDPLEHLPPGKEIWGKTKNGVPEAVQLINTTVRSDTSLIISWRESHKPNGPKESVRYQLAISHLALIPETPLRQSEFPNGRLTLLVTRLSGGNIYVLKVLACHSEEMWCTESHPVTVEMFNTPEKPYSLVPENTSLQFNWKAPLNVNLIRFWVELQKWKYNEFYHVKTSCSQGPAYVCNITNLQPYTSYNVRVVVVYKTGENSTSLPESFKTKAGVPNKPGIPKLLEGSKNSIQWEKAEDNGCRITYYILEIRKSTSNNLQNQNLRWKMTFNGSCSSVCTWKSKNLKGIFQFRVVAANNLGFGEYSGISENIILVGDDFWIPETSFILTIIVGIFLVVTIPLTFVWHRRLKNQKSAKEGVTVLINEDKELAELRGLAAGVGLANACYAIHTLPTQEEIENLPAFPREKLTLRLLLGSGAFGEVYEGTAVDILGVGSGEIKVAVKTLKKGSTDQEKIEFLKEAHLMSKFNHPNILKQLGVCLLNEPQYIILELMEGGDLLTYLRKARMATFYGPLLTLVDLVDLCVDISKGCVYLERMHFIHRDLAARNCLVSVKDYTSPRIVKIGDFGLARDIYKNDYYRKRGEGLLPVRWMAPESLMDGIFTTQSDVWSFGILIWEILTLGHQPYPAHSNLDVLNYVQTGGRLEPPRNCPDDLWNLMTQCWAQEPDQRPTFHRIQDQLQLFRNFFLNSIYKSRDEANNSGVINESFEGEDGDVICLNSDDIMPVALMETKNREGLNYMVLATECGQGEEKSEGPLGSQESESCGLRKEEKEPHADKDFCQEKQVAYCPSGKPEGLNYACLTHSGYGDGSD
Chain of Insulin-like growth factor 1 receptor (P08069 31-736 limits assumed): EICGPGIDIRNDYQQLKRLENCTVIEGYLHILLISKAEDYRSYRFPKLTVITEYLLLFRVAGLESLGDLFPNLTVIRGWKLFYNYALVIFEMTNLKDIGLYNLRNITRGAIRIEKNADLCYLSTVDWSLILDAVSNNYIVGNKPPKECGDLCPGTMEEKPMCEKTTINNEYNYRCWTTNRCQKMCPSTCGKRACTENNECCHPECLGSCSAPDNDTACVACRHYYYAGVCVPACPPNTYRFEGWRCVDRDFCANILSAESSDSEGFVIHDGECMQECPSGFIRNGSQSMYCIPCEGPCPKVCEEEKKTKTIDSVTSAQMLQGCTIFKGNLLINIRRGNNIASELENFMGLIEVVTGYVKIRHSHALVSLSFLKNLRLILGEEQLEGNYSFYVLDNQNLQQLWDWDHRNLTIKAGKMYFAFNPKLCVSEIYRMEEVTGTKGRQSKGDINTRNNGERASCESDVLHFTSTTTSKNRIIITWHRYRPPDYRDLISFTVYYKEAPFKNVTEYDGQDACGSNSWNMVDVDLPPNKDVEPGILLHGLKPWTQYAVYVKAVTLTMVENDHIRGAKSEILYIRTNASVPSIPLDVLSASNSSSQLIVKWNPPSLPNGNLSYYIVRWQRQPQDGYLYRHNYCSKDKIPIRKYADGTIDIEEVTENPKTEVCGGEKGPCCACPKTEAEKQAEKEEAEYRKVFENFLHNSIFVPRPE
Chain of Insulin-like growth factor 1 receptor (P08069 741-1367 limits assumed): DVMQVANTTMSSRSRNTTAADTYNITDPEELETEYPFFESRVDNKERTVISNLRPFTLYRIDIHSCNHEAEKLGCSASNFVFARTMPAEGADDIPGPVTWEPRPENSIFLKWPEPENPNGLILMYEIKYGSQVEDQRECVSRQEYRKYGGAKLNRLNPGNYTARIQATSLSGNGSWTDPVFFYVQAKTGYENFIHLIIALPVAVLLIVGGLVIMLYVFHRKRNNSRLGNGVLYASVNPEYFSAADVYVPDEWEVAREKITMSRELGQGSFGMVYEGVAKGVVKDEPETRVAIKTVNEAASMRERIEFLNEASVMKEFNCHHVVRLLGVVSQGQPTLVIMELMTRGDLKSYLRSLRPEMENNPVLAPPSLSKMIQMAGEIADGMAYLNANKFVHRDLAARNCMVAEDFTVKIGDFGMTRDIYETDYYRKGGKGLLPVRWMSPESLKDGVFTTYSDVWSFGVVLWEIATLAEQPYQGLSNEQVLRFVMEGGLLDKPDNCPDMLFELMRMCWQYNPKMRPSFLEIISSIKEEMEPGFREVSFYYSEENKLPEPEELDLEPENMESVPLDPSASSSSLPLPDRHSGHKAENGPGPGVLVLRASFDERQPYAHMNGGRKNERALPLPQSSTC

CNC(=O)Nc1ccc(-c2nc(N3CC4CCC(C3)O4)c3cnn(C4CCC5(CC4)OCCO5)c3n2)cc1
% of control [1]: 100%

Cc1cc(F)c(C(=O)Nc2cccc(-c3nncn3C(C)C)n2)cc1-n1cnc(C2CC2)c1
% of control [2]: 93%

COCC(=O)NC/C=C/c1ccc2ncnc(Nc3ccc(Oc4ccc(C)nc4)c(C)c3)c2c1 [CP-724714]
% of control [3]: 83%

COc1cc(Nc2nc(C)cc(-c3cnn4nc(OC)ccc34)n2)cc(C(F)(F)F)c1
% of control [4]: 92%

Cc1cnc(Nc2ccc(F)cc2Cl)nc1-c1c[nH]c(C(=O)N[C@H](CO)c2cccc(Cl)c2)c1
% of inhibition [5]: 8%

Nc1cnc(N2CCc3cc(S(=O)(=O)Nc4c(F)cc(Cl)cc4F)cc(N4CCCC4=O)c32)nc1 [TP-020n]
% of control [6]: 99%

Cc1cc(CN)cc(C)c1-c1ncn(C)c1-c1cncn1C
% activity ([7]; at 1 µM): > 90% | % activity ([7]; at 10 µM): > 80%

Cc1cc([C@@H](C)Nc2ccccc2C(=O)O)c2nc(N3CCOCC3)cc(=O)n2c1 [AZD-6482]
% of control [8]: 93%
